Patent US10251874B2, “Crystalline forms of a JAK inhibitor compound” (THERAVANCE BIOPHARMA R&D IP, LLC, priority 2017, dated 2019)
pIC50: −log10 of the molar value. Where two headings read alike, the source gives them in different places.

How the values were obtained:
[1] = tested on: IL-2/anti-CD3 stimulated IFNγ in human PBMCs; assay: Assay 3: Inhibition of IL-2/anti-CD3 stimulated IFNγ in human PBMCs; type: cell-based; settings: PBMC, 24 h stimulation, ELISA, read-out: pIC50, inhibition of IL-2/anti-CD3 stimulated IFNγ (converted)
Description: Data are expressed as pIC50 (negative decadic logarithm IC50) values.

[2] = tested on: IL-6 stimulated pSTAT3 in CD3+ T cells; assay: Assay 6: Inhibition of IL-6 stimulated pSTAT3 in CD3+ T cells; type: cell-based; settings: T-cell; CD3+ T cells in human PBMCs, flow cytometry; read-out: pIC50, inhibition of IL-6 stimulated pSTAT3 (converted)
Description: A protocol analogous to that of Assay 5 was used to determine the potency of the test compound for inhibition of interleuken-6 (IL-6) stimulated STAT3 phosphorylation.
An Alexa Fluor 647 conjugated anti-pSTAT3 antibody (pY705, Clone 4/P, BD Biosciences) was used to detect STAT3 phosphorylation.

[3] = tested on: IL-2, IL-4, IL-6, and IFNγ signaling; assay: Cellular assays of Assays 3 to 7 (summary statement); type: cell-based; settings: Homo sapiens, summary over cellular Assays 3 to 7
[4] = tested on: IFNγ-induced IP-10; assay: Assay 14: Pharmacodynamic assay: inhibition of IFNγ-induced IP-10 in rabbits; type: in vivo, New Zealand White rabbits; settings: rabbit
Procedure: The ability of a single intravitreal administration of test compound to inhibit interferon-gamma (IFNγ) induced IP-10 protein levels was measured in rabbit vitreous and retina/choroid tissues.
Solution formulations at concentrations of 1 mg/mL and 4 mg/mL of compound 1 of Example 2 were prepared as in Assay 12. A suspension formulation was prepared by combining crystalline compound 1 of Example 2 with 0.5% hydroxypropyl methylcellulose (HPMC E5), 0.02% Tween 80, and 9 mg/mL sodium chloride in purified water to attain a target concentration of 20 mg/mL.
Male, New Zealand White rabbits (Liveon Biolabs, India) were used for the studies. Animals were acclimated after arrival at the research facilities (Jubilant Biosys Ltd., India). Each rabbit was given a total of two intravitreal (IVT) injections with a total dose volume of 50 μL per eye. The first IVT injection (45 μL per eye) delivered test compound or vehicle at a prescribed time point (i.e. 24 hours for the solution formulations or 1 week for the suspension formulation). The second IVT injection (5 μL per eye) delivered IFNγ (1 μg/eye; Stock solution 1 mg/mL; Kingfisher Biotech) or vehicle for the induction of IP-10. In brief, on the day of the injections, rabbits were anesthetized with an intramuscular injection of ketamine (35 mg/kg) and xylazine (5 mg/kg). Once deeply anesthetized, each eye was rinsed with sterile saline and IVT injections were performed using a 0.5 mL insulin syringe (50 units=0.5 mL) with a 31-gauge needle at the supra-nasal side of the both eyes by marking the position with a Braunstein fixed caliper (2 ¾″) 3.5 mm from the rectus muscle and 4 mm from the limbus.
Tissues were collected 24 hours after the second IVT injection with IFNγ. Vitreous humor (VH) and retina/choroid tissues (R/C) were collected and homogenized, and IP-10 protein levels were measured using a rabbit CXCL10 (IP-10) ELISA kit (Kingfisher Biotech). The percent inhibition of IFNγ-induced IP-10 was calculated in comparison to the vehicle/vehicle and vehicle/IFNγ groups.

[5] = tested on: IL-5 mediated survival of human eosinophils; assay: Assay 16: IL-5 mediated eosinophil survival assay; type: cell-based; settings: 72 h, read-out: pIC50, IL-5 mediated eosinophil survival (cell viability) (converted)
Procedure: The potency of the test compound for IL-5 mediated eosinophil survival was measured in human eosinophils isolated from human whole blood (AllCells). Because IL-5 signals through JAK, this assay provides a measure of JAK cellular potency. Human eosinophils were isolated from fresh human whole blood (AllCells) of healthy donors. Blood was mixed with 4.5% Dextran (Sigma-Aldrich) in a 0.9% sodium chloride solution (Sigma-Aldrich). Red blood cells were left to sediment for 35 minutes. The leukocyte rich upper layer was removed and layered over Ficoll-Paque (GE Healthcare) and centrifuged at 600 g for 30 minutes. The plasma and mononuclear cell layers were removed before the granulocyte layer was lysed with water to remove any contaminating red blood cells. […] Purity was analyzed using a LSRII flow cytometer (BD Biosciences). […]
After cytokine stimulation, cells were centrifuged at 300 g for 5 min and washed twice with cold DPBS (Life Technologies). To access viability and apoptosis, cells were incubated with Propidium Iodide (Thermo Fisher Scientific) and APC Annexin V (BD Biosciences) and analyzed using a LSRII flow cytometer (BD Biosciences). IC50 values were determined from analysis of the viability curves of percent cell viability vs compound concentration. Data are expressed as pIC50 (negative decadic logarithm IC50) values.

[6] = IVT crystalline suspension 20 mg/mL (Example 2), 1 week pre-treatment
[7] = IVT solution, 45 μg, 24 hour pre-treatment
[8] = IVT solution, 180 μg, 24 hour pre-treatment

CCc1cc(O)c(F)cc1-c1ccc2c(-c3nc4c([nH]3)CCN(C3CCN(C)CC3)C4)n[nH]c2c1 [Compound 1, 5-ethyl-2-fluoro-4-(3-(5-(1-methylpiperidin-4-yl)-4,5,6,7-tetrahydro-1H-imidazo[4,5-c]pyridin-2-yl)-1H-indazol-6-yl)phenol]
IC50 [1]: ~50.1 nM | IC50 [2]: 39.8 nM | pIC50 ([3]; read-out: IC50 for inhibition of IL-2, IL-4, IL-6, and IFNγ signaling): ≥ 6.70 | IC50 ([3]; read-out: pIC50 for inhibition of IL-2, IL-4, IL-6, and IFNγ signaling (converted)): ≤ 200 nM | inhibition of IFNγ-induced IP-10 in retina/choroid tissues [4, 6]: 100% | inhibition of IFNγ-induced IP-10 in vitreous humor [4, 6]: 100% | inhibition of IFNγ-induced IP-10 in retina/choroid tissue [4, 7]: 86% | inhibition of IFNγ-induced IP-10 in vitreous humor [4, 7]: 70% | inhibition of IFNγ-induced IP-10 in retina/choroid tissue [4, 8]: 100% | inhibition of IFNγ-induced IP-10 in vitreous humor [4, 8]: 91% | IC50 ([5]; in the presence of 10 pg/ml IL-5, 72 hours): 12.6 nM | IC50 ([5]; in the presence of 1 ng/ml IL-5, 72 hours): 316 nM
